Assay results as given in patent publication US10358434B2, “2-(3-pyridinyl)-1H-benzimidazole derivative compound and medicament containing same” (NIHON MEDI-PHYSICS CO., LTD., priority 2014, dated 2019).

Assays:
[1] = test system: human adrenal gland section expressing aldosterone-producing adenoma; experiment: In vitro autoradiography using human adrenal adenoma; format: binding; details: section of FIG. 17(b)
Outline: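 Autoradiography readout: PSL in equal-sized ROIs over adenoma (B2) and normal adrenal cortex (B1), expressed as B2/B1 and decay-corrected using half-life, applied activity and plate contact time. Tissue was surgically excised human adrenal, frozen and cut at 7 μm, incubated 10 min with 5-33 kBq/mL tracer in BSA-containing PBS, then imaged after 16-20 h exposure.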

[2] = In vivo kinetics experiment (radioactivity distribution); set-up: species or system Wistar male rat; details: rat i.v., mean ± SD
Outline: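 Tissue radioactivity (% ID/g) and adrenal-to-blood, liver, kidney, small intestine, muscle and fat ratios determined at 10, 30 and 60 min post-dose. Tracers (approximately 1 to 3.7 MBq, saline with 1 w/v % ascorbic acid) injected i.v. into caudal vein of anesthetized 9-week male Wistar rats; organs excised, weighed, counted.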

[3] = Plasma stability evaluation (TLC analysis); format: in vitro ADME; details: 37° C., 60 minutes, TLC analysis
Outline: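 TLC analysis, using each compound's synthesis conditions, judged stability after methanol was added and samples were centrifuged to remove protein. Beforehand, each tracer had spent 60 minutes at 37° C in pooled heparinized normal human plasma.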

## Fc1cc2nc(-c3cncc(Cn4ccnc4)c3)n(Cc3ccc([123I])cc3)c2cc1Cl [[^123I] 605, 6-Chloro-5-fluoro-1-(4-[^123I]iodobenzyl)-2-[5-(1H-imidazol-1-ylmethyl)-3-pyridinyl]-1H-benzimidazole]
[1]
  B2/B1 accumulation ratio: 0.94
[1]; site 71b
  B2 (PSL value, aldosterone-producing adenoma): 4065
[1]; site 72b
  B1 (PSL value, normal adrenal cortex): 4318
[2]; 10 min after administration
  Adrenal gland/blood ratio of radioactivity accumulation: 39.83 ± 1.25
  Adrenal gland/fat ratio of radioactivity accumulation: 41.90 ± 6.19
  Adrenal gland/kidney ratio of radioactivity accumulation: 2.61 ± 0.04
  Adrenal gland/liver ratio of radioactivity accumulation: 1.38 ± 0.01
  Adrenal gland/muscle ratio of radioactivity accumulation: 36.77 ± 3.87
  Adrenal gland/small intestine ratio of radioactivity accumulation: 2.44 ± 0.80
  Radioactivity distribution Adrenal gland: 5.67 ± 0.25 % ID/g
  Radioactivity distribution Bladder (including urine): 0.09 ± 0.06 % ID/g
  Radioactivity distribution Blood: 0.14 ± 0.00 % ID/g
  Radioactivity distribution Fat: 0.14 ± 0.02 % ID/g
  Radioactivity distribution Femur: 0.51 ± 0.02 % ID/g
  Radioactivity distribution Heart: 0.73 ± 0.06 % ID/g
  Radioactivity distribution Kidney: 2.17 ± 0.09 % ID/g
  Radioactivity distribution Large intestine: 0.13 ± 0.01 % ID/g
  Radioactivity distribution Liver: 4.12 ± 0.23 % ID/g
  Radioactivity distribution Lung: 1.94 ± 0.16 % ID/g
  Radioactivity distribution Muscle (lower limbs): 0.16 ± 0.01 % ID/g
  Radioactivity distribution Remaining whole body: 0.20 ± 0.01 % ID/g
  Radioactivity distribution Small intestine: 2.46 ± 0.61 % ID/g
  Radioactivity distribution Spleen: 1.08 ± 0.10 % ID/g
  Radioactivity distribution Stomach: 0.80 ± 0.23 % ID/g
  Radioactivity distribution Testis: 0.03 ± 0.00 % ID/g
  Radioactivity distribution Whole brain: 0.03 ± 0.00 % ID/g
[2]; 30 min after administration
  Adrenal gland/blood ratio of radioactivity accumulation: 26.42 ± 7.24
  Adrenal gland/fat ratio of radioactivity accumulation: 22.69 ± 9.87
  Adrenal gland/kidney ratio of radioactivity accumulation: 2.58 ± 0.55
  Adrenal gland/liver ratio of radioactivity accumulation: 1.14 ± 0.36
  Adrenal gland/muscle ratio of radioactivity accumulation: 14.44 ± 5.54
  Adrenal gland/small intestine ratio of radioactivity accumulation: 0.79 ± 0.34
  Radioactivity distribution Adrenal gland: 3.10 ± 1.06 % ID/g
  Radioactivity distribution Bladder (including urine): 0.15 ± 0.01 % ID/g
  Radioactivity distribution Blood: 0.12 ± 0.01 % ID/g
  Radioactivity distribution Fat: 0.14 ± 0.03 % ID/g
  Radioactivity distribution Femur: 0.44 ± 0.04 % ID/g
  Radioactivity distribution Heart: 0.52 ± 0.04 % ID/g
  Radioactivity distribution Kidney: 1.18 ± 0.14 % ID/g
  Radioactivity distribution Large intestine: 0.16 ± 0.01 % ID/g
  Radioactivity distribution Liver: 2.72 ± 0.12 % ID/g
  Radioactivity distribution Lung: 0.99 ± 0.10 % ID/g
  Radioactivity distribution Muscle (lower limbs): 0.22 ± 0.02 % ID/g
  Radioactivity distribution Remaining whole body: 0.21 ± 0.02 % ID/g
  Radioactivity distribution Small intestine: 3.99 ± 0.33 % ID/g
  Radioactivity distribution Spleen: 0.58 ± 0.09 % ID/g
  Radioactivity distribution Stomach: 1.38 ± 0.42 % ID/g
  Radioactivity distribution Testis: 0.03 ± 0.00 % ID/g
  Radioactivity distribution Whole brain: 0.03 ± 0.00 % ID/g
[2]; 60 min after administration
  Adrenal gland/blood ratio of radioactivity accumulation: 20.07 ± 1.94
  Adrenal gland/fat ratio of radioactivity accumulation: 10.82 ± 1.23
  Adrenal gland/kidney ratio of radioactivity accumulation: 2.05 ± 0.09
  Adrenal gland/liver ratio of radioactivity accumulation: 0.88 ± 0.05
  Adrenal gland/muscle ratio of radioactivity accumulation: 10.90 ± 0.67
  Adrenal gland/small intestine ratio of radioactivity accumulation: 0.26 ± 0.08
  Radioactivity distribution Adrenal gland: 1.70 ± 0.21 % ID/g
  Radioactivity distribution Bladder (including urine): 0.13 ± 0.05 % ID/g
  Radioactivity distribution Blood: 0.09 ± 0.02 % ID/g
  Radioactivity distribution Fat: 0.16 ± 0.02 % ID/g
  Radioactivity distribution Femur: 0.36 ± 0.03 % ID/g
  Radioactivity distribution Heart: 0.35 ± 0.09 % ID/g
  Radioactivity distribution Kidney: 0.83 ± 0.10 % ID/g
  Radioactivity distribution Large intestine: 0.19 ± 0.03 % ID/g
  Radioactivity distribution Liver: 1.93 ± 0.37 % ID/g
  Radioactivity distribution Lung: 0.56 ± 0.15 % ID/g
  Radioactivity distribution Muscle (lower limbs): 0.16 ± 0.01 % ID/g
  Radioactivity distribution Remaining whole body: 0.13 ± 0.02 % ID/g
  Radioactivity distribution Small intestine: 6.65 ± 0.98 % ID/g
  Radioactivity distribution Spleen: 0.34 ± 0.07 % ID/g
  Radioactivity distribution Stomach: 2.22 ± 0.73 % ID/g
  Radioactivity distribution Testis: 0.03 ± 0.01 % ID/g
  Radioactivity distribution Whole brain: 0.02 ± 0.01 % ID/g
[3]
  Radiochemical purity after incubation in human plasma: 90%
